Values quoted from earlier work in patent publication US20040109898A1, “Topical composition for heightened sensitivity” (priority 2002, published 2004).
Like-named read-outs stand apart in the source and are kept apart here.

How the values were obtained:
[1] = cold, heat, cooking, freezing

Compound | stability / retention of potency [1] | detectable to the palate in dilutions of (palate) | solubility in alcohols, fats, and oils (alcohols, fats, and oils) | solubility in water (water) | Scoville Units rating (panel of individuals; individual capsaicinoid) | Scoville Unit (SU) rating (panel of individuals; pure, individual capsaicinoids) | Scoville Unit (SU) rating (panel of individuals)
COc1cc(CNC(=O)CCCC/C=C/C(C)C)ccc1O [Capsaicin, 8-methyl-N-vanillyl-6-(E)-nonenamide] | seemingly unaffected by cold or heat, which retains its original potency despite time, cooking, or freezing | one to seventeen million | very soluble | slightly soluble | 16 million Scoville Units | 16 million SU | –
COc1cc(CNC(=O)CCCCC/C=C/C(C)C)ccc1O [Homocapsaicin, 9-methyl-N-vanillyl-7-(E)-decenamide] | – | – | – | – | – | – | 8.6 million SU
COc1cc(CNC(=O)CCCCCCCC(C)C)ccc1O [Homodihydrocapsaicin, 9-methyl-N-vanillyl-decanamide] | – | – | – | – | – | 8.6 million SU | –
